# From patent US20020107282A1, “Cosmetic composition containing an aminophenol derivative and an isoflavonoid” (L'OREAL, priority 2000, published 2002)
# System: fungal tyrosinase
# Assay: in vitro inhibition of the activity of fungal tyrosinase (OD at 475 nm)
# Format: biochemical
# Settings: active agent alone in ethanol, C1 = 1.25 × 10^−4 M
# Protocol: This test consists in measuring the absorbence (optical density OD) at 475 nm as a function of time for each of the depigmenting active agents tested. These agents are dissolved (at various concentrations) in a suitable solvent in the presence of a phosphate buffer, 1 ml of L-tyrosine at 2.0×10^−3 M in a phosphate buffer, 0.1 ml of L-Dopa at 1.0×10^−4 M in a phosphate buffer and 50 μl of a fungal tyrosinase solution at 1 g/l in a phosphate buffer, compared with a control consisting of the solvent used at the same concentration in the phosphate buffer. A percentage of inhibition is then determined by the following equation: [formula] […] These two active agents in the concentrations C1 and C2 found above are then mixed together. The theoretical percentage of inhibition of the mixture (or theoretical IC), corresponding to the sum of the percentages of inhibition observed for the individual compounds, is then calculated, and the percentage of inhibition obtained (or measured IC) is measured under the same experimental conditions as for the compounds tested separately.
compound,measurement,setting,value
"CCOC(=O)Nc1ccc(O)cc1 [N-ethoxy-carbonyl-4-aminophenol, N-ethyloxycarbonyl-4-aminophenol]",IC obtained (%),inhibition actually obtained,23.5%
same,Theoretical IC (%),inhibition value that should be observed (close to 25%),24.8%
